{
  "source": "ChEMBL document CHEMBL4507270",
  "about": "(2021)",
  "key": {"[1]": {"target": "Insulin receptor (Homo sapiens) (UniProt P06213)"}, "[2]": {"target": "Serine/threonine-protein kinase 26 (Homo sapiens) (UniProt Q9P289)", "sequence (Q9P289 2-416 limits assumed)": "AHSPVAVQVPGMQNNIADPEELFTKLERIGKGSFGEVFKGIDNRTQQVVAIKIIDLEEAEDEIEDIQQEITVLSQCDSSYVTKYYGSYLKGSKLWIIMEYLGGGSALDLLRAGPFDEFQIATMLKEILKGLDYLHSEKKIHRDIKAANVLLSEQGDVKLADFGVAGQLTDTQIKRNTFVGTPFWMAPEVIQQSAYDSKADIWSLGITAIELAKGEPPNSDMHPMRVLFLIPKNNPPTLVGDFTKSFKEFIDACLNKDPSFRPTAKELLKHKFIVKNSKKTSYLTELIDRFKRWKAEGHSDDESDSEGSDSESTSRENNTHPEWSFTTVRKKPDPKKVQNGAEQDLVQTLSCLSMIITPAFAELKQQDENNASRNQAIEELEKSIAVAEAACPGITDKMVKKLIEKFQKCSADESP"}, "[3]": {"target": "Megakaryocyte-associated tyrosine-protein kinase (Homo sapiens) (UniProt P42679)"}, "[4]": {"target": "Tyrosine-protein kinase Fgr (Homo sapiens) (UniProt P09769)", "sequence (P09769 2-529 limits assumed)": "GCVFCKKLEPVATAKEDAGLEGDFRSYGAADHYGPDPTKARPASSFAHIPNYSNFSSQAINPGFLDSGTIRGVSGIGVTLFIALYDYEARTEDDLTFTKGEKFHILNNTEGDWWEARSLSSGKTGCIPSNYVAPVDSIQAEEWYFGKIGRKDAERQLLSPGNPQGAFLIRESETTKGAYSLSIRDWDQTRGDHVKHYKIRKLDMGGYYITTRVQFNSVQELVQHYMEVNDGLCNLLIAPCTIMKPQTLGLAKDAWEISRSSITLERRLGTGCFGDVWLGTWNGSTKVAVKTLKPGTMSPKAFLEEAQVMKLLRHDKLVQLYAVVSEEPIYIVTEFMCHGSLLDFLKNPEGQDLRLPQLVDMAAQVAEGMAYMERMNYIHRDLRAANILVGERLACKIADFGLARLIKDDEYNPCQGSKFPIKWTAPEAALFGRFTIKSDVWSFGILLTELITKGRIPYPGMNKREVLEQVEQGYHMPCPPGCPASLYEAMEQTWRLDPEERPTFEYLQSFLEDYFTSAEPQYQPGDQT"}, "[5]": {"target": "Calcium/calmodulin-dependent protein kinase type II subunit alpha (Homo sapiens) (UniProt Q9UQM7)"}, "[6]": {"target": "Serine/threonine-protein kinase LATS2 (Homo sapiens) (UniProt Q9NRM7)"}, "[7]": {"tested_on": "Epidermal growth factor receptor (Homo sapiens), P00533 [L858R]"}, "[8]": {"target": "Mast/stem cell growth factor receptor Kit (Homo sapiens) (UniProt P10721)"}, "[9]": {"target": "Serine/threonine-protein kinase Sgk1 (Homo sapiens) (UniProt O00141)", "sequence (O00141 whole entry)": "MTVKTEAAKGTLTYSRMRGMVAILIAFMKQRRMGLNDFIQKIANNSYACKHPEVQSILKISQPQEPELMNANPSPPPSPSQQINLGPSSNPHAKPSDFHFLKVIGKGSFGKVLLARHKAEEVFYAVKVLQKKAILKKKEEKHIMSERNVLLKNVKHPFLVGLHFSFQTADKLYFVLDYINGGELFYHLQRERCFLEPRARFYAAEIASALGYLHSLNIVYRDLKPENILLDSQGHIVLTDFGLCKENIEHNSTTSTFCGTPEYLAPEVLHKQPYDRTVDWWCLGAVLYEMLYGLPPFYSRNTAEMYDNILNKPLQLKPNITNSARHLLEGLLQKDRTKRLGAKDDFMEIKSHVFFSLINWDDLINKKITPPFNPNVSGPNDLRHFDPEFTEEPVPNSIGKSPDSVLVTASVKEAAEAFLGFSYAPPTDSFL"}, "[10]": {"tested_on": "Epidermal growth factor receptor (Homo sapiens), P00533 [T790M]"}, "[11]": {"target": "Tyrosine-protein kinase HCK (Homo sapiens) (UniProt P08631)"}, "[12]": {"target": "T1, Ephrin type-B receptor 6 (Homo sapiens, UniProt O15197)", "T1 sequence (O15197 whole entry)": "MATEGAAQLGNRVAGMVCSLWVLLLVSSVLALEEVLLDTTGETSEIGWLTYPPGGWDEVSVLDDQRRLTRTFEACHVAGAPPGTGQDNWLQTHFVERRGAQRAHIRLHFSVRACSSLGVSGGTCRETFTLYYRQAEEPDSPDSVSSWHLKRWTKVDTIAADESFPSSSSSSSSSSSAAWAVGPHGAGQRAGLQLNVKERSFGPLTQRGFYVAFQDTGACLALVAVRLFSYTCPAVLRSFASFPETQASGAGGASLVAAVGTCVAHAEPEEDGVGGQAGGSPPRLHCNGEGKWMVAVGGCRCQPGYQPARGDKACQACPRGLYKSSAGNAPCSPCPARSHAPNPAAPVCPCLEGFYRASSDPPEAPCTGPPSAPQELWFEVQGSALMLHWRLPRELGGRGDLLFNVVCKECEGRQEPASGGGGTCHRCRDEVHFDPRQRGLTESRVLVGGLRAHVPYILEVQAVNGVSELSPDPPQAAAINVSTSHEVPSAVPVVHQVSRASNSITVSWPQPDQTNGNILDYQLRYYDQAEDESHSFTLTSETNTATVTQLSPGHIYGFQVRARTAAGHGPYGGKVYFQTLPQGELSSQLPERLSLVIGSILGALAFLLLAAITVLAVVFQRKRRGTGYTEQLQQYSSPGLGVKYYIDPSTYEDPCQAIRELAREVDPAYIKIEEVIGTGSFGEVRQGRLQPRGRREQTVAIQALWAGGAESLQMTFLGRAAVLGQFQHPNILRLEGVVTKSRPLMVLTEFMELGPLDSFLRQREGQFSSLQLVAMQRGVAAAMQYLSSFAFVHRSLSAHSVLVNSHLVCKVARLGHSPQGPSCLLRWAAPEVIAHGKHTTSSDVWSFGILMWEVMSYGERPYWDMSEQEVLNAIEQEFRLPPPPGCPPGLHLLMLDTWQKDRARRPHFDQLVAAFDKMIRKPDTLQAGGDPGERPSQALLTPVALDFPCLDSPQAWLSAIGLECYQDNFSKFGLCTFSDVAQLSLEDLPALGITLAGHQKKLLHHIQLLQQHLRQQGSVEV", "test": "NanoBRET assay (SGC Frankfurt) with EPHB6"}, "[13]": {"target": "Muscarinic acetylcholine receptor M3 (Homo sapiens) (UniProt P20309)", "conditions": "Compound concentration 10.0 uM; call rule not given here"}, "[14]": {"target": "Rhodopsin kinase GRK7 (Homo sapiens) (UniProt Q8WTQ7)"}, "[15]": {"target": "SNF-related serine/threonine-protein kinase (Homo sapiens) (UniProt Q9NRH2)", "sequence (Q9NRH2 whole entry)": "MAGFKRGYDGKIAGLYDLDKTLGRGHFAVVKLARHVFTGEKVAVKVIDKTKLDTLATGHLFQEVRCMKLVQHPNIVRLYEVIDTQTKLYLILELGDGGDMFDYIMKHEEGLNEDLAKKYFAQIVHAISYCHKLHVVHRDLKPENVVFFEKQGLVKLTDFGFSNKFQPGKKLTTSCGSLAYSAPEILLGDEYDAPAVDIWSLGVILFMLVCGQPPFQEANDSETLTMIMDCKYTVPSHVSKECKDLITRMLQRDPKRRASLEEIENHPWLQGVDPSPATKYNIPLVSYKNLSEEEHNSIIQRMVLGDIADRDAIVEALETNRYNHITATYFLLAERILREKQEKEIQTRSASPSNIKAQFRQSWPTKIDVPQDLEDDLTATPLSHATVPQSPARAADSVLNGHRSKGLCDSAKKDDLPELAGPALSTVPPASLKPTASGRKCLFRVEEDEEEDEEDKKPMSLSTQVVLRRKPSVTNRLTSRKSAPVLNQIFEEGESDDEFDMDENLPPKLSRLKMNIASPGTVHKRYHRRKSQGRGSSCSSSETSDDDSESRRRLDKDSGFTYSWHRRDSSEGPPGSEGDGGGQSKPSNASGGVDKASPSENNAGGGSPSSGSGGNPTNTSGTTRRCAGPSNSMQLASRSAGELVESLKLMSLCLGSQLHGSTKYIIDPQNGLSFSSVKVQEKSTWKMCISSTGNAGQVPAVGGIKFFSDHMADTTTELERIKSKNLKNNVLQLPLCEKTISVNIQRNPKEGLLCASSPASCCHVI"}, "[16]": {"target": "Serine/threonine-protein kinase Nek3 (Homo sapiens) (UniProt P51956)"}, "[17]": {"target": "Serine/threonine-protein kinase pim-2 (Homo sapiens) (UniProt Q9P1W9)"}, "[18]": {"target": "Serine/threonine-protein kinase 38 (Homo sapiens) (UniProt Q15208)"}, "[19]": {"target": "Tyrosine-protein kinase ITK/TSK (Homo sapiens) (UniProt Q08881)", "sequence (Q08881 whole entry)": "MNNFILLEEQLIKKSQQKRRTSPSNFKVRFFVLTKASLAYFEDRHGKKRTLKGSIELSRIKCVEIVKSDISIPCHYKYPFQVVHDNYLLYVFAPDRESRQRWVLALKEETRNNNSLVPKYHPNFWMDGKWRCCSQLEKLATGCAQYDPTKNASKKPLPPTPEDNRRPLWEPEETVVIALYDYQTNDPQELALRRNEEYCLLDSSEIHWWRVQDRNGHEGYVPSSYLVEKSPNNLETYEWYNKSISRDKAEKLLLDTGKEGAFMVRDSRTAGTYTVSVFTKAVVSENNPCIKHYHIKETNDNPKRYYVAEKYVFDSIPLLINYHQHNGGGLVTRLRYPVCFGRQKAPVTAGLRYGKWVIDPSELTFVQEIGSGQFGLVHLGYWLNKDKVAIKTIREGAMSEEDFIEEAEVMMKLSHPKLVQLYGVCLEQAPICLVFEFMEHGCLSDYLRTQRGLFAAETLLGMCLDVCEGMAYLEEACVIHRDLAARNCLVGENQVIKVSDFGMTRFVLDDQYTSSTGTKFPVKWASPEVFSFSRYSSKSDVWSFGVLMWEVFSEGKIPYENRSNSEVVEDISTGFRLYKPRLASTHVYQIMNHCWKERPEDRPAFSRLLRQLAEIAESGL"}, "[20]": {"target": "MAP/microtubule affinity-regulating kinase 3 (Homo sapiens) (UniProt P27448)", "sequence (P27448 whole entry, looked up)": "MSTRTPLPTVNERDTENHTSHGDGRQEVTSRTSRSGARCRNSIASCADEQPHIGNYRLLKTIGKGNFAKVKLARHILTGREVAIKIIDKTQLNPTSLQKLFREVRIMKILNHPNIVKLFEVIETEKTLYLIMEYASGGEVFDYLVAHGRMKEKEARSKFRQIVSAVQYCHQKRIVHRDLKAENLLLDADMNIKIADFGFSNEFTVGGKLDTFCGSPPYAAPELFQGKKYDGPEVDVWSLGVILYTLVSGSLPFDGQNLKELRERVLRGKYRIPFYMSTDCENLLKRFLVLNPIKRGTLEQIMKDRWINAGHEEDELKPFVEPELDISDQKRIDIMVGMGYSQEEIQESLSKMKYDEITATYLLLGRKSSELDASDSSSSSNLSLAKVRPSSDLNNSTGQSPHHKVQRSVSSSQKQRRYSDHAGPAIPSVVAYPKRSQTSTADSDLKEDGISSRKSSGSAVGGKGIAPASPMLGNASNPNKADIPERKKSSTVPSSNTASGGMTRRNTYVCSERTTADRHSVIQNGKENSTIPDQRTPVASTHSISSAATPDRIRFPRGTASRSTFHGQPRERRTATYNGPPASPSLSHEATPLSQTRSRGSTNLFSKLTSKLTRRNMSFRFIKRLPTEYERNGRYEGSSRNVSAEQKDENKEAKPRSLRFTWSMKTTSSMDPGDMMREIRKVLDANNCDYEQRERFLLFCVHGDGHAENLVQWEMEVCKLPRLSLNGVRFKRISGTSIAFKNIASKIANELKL"}, "[21]": {"target": "Aurora kinase C (Homo sapiens) (UniProt Q9UQB9)"}, "[22]": {"tested_on": "Tyrosine-protein kinase ABL1 (Homo sapiens), P00519 [H396P]"}, "[23]": {"target": "Testis-specific serine/threonine-protein kinase 1 (Homo sapiens) (UniProt Q9BXA7)"}, "[24]": {"target": "Cytoplasmic tyrosine-protein kinase BMX (Homo sapiens) (UniProt P51813)"}, "[25]": {"target": "Proto-oncogene tyrosine-protein kinase ROS (Homo sapiens) (UniProt P08922)"}, "[26]": {"target": "Tyrosine-protein kinase SYK (Homo sapiens) (UniProt P43405)"}, "[27]": {"target": "Mitogen-activated protein kinase kinase kinase 15 (Homo sapiens) (UniProt Q6ZN16)", "sequence (Q6ZN16 whole entry)": "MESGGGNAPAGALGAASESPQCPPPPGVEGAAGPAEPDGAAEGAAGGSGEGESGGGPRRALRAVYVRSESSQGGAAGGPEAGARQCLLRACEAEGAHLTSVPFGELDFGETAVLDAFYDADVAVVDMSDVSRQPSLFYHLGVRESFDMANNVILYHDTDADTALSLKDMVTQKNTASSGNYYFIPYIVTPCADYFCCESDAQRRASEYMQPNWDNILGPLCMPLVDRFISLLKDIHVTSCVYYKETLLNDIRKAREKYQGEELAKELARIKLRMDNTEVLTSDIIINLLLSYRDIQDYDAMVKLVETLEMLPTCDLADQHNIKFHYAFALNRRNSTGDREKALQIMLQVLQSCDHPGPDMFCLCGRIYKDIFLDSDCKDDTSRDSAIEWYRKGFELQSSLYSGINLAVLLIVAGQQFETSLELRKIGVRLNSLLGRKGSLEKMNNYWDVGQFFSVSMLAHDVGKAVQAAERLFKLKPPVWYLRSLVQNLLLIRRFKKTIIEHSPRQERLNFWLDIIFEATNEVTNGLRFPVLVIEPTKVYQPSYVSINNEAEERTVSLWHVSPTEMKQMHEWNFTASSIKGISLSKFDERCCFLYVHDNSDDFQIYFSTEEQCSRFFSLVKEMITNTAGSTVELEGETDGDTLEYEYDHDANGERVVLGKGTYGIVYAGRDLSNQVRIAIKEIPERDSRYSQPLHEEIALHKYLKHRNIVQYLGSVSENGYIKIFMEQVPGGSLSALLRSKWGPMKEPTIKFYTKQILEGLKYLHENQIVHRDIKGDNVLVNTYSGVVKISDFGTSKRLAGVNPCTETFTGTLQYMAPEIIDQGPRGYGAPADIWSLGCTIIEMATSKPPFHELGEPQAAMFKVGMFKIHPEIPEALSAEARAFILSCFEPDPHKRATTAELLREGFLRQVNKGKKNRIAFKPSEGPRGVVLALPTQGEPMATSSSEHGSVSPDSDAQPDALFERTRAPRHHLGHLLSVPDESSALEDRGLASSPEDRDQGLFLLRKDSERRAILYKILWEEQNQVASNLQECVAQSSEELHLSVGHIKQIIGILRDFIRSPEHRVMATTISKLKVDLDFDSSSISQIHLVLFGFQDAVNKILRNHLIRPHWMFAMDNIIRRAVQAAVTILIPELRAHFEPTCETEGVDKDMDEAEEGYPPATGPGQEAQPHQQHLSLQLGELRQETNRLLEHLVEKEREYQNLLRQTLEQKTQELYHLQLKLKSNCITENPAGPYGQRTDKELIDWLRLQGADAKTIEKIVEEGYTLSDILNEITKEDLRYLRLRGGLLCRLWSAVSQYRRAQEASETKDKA"}, "[28]": {"target": "Phosphatidylinositol 4,5-bisphosphate 3-kinase catalytic subunit beta isoform (Homo sapiens) (UniProt P42338)"}, "[29]": {"target": "Ribosomal protein S6 kinase alpha-2 (Homo sapiens) (UniProt Q15349)"}, "[30]": {"target": "Microtubule-associated serine/threonine-protein kinase 1 (Homo sapiens) (UniProt Q9Y2H9)"}, "[31]": {"target": "Ribosomal protein S6 kinase alpha-5 (Homo sapiens) (UniProt O75582)"}, "[32]": {"conditions": "Compound concentration 1000.0 nM"}, "[33]": {"conditions": "Compound concentration 100.0 nM"}},
  "data": [
    {"smiles": "Cc1cc(NC(=O)c2cccc(S(F)(F)(F)(F)F)c2)cc(-n2ccn3nc(-c4cccnc4)cc23)c1", "note": "[BAY-309]", "values": [
      {"measurement": "residual activity", "setting": "[1]; [32]", "result": 100, "unit": "%"},
      {"measurement": "residual activity", "setting": "[2]; [32]", "result": 100, "unit": "%"},
      {"measurement": "residual activity", "setting": "[3]; [32]", "result": 100, "unit": "%"},
      {"measurement": "residual activity", "setting": "[4]; [32]", "result": 100, "unit": "%"},
      {"measurement": "residual activity", "setting": "[5]; [32]", "result": 100, "unit": "%"},
      {"measurement": "residual activity", "setting": "[6]; [32]", "result": 100, "unit": "%"},
      {"measurement": "residual activity", "setting": "[7]; [32]", "result": 100, "unit": "%"},
      {"measurement": "residual activity", "setting": "[8]; [32]", "result": 89.5, "unit": "%"},
      {"measurement": "residual activity", "setting": "[9]; [32]", "result": 81.3, "unit": "%"},
      {"measurement": "residual activity", "setting": "[10]; [32]", "result": 100, "unit": "%"},
      {"measurement": "residual activity", "setting": "[11]; [32]", "result": 98.7, "unit": "%"},
      {"measurement": "EC50", "setting": "[12]", "result": "27 µM (not active)"},
      {"measurement": "IC50", "setting": "[12]", "result": "11 µM (not active)"},
      {"measurement": "inhibition", "setting": "[13]", "result": 16.3, "unit": "%"},
      {"measurement": "residual activity", "setting": "[14]; [32]", "result": 100, "unit": "%"},
      {"measurement": "residual activity", "setting": "[15]; [32]", "result": 100, "unit": "%"},
      {"measurement": "residual activity", "setting": "[16]; [32]", "result": 50.5, "unit": "%"},
      {"measurement": "residual activity", "setting": "[17]; [32]", "result": 100, "unit": "%"},
      {"measurement": "residual activity", "setting": "[18]; [32]", "result": 92.3, "unit": "%"},
      {"measurement": "residual activity", "setting": "[19]; [32]", "result": 100, "unit": "%"},
      {"measurement": "residual activity", "setting": "[20]; [32]", "result": 100, "unit": "%"},
      {"measurement": "residual activity", "setting": "[21]; [32]", "result": 86.7, "unit": "%"},
      {"measurement": "residual activity", "setting": "[22]; [32]", "result": 66.9, "unit": "%"},
      {"measurement": "residual activity", "setting": "[23]; [32]", "result": 100, "unit": "%"},
      {"measurement": "residual activity", "setting": "[24]; [32]", "result": 100, "unit": "%"},
      {"measurement": "residual activity", "setting": "[25]; [32]", "result": 92.8, "unit": "%"},
      {"measurement": "residual activity", "setting": "[26]; [32]", "result": 95.5, "unit": "%"},
      {"measurement": "residual activity", "setting": "[27]; [32]", "result": 100, "unit": "%"},
      {"measurement": "residual activity", "setting": "[28]; [32]", "result": 100, "unit": "%"},
      {"measurement": "residual activity", "setting": "[29]; [32]", "result": 84, "unit": "%"},
      {"measurement": "residual activity", "setting": "[30]; [32]", "result": 100, "unit": "%"},
      {"measurement": "residual activity", "setting": "[31]; [32]", "result": 100, "unit": "%"}
    ]},
    {"smiles": "Cc1cc(C)c(-n2ccn3nc(-c4cccnc4)cc23)cc1NC(=O)c1cc(C#N)cc(S(F)(F)(F)(F)F)c1", "note": "[BAY-826]", "values": [
      {"measurement": "residual activity", "setting": "[1]; [33]", "result": 69, "unit": "%"},
      {"measurement": "residual activity", "setting": "[2]; [33]", "result": 81.8, "unit": "%"},
      {"measurement": "residual activity", "setting": "[3]; [33]", "result": 80.4, "unit": "%"},
      {"measurement": "residual activity", "setting": "[4]; [33]", "result": 84.9, "unit": "%"},
      {"measurement": "residual activity", "setting": "[5]; [33]", "result": 95, "unit": "%"},
      {"measurement": "residual activity", "setting": "[6]; [33]", "result": 73.2, "unit": "%"},
      {"measurement": "residual activity", "setting": "[7]; [33]", "result": 83.9, "unit": "%"},
      {"measurement": "residual activity", "setting": "[8]; [33]", "result": 44.5, "unit": "%"},
      {"measurement": "residual activity", "setting": "[9]; [33]", "result": 100, "unit": "%"},
      {"measurement": "residual activity", "setting": "[10]; [33]", "result": 61.6, "unit": "%"},
      {"measurement": "residual activity", "setting": "[11]; [33]", "result": 72.1, "unit": "%"},
      {"measurement": "EC50", "setting": "[12]", "result": "12 µM (not active)"},
      {"measurement": "IC50", "setting": "[12]", "result": "3.9 µM (not active)"},
      {"measurement": "inhibition", "setting": "[13]", "result": 10.5, "unit": "%"},
      {"measurement": "residual activity", "setting": "[14]; [33]", "result": 65.6, "unit": "%"},
      {"measurement": "residual activity", "setting": "[15]; [33]", "result": 100, "unit": "%"},
      {"measurement": "residual activity", "setting": "[16]; [33]", "result": 70.7, "unit": "%"},
      {"measurement": "residual activity", "setting": "[17]; [33]", "result": 100, "unit": "%"},
      {"measurement": "residual activity", "setting": "[18]; [33]", "result": 80.4, "unit": "%"},
      {"measurement": "residual activity", "setting": "[19]; [33]", "result": 84.9, "unit": "%"},
      {"measurement": "residual activity", "setting": "[20]; [33]", "result": 85.1, "unit": "%"},
      {"measurement": "residual activity", "setting": "[21]; [33]", "result": 100, "unit": "%"},
      {"measurement": "residual activity", "setting": "[22]; [33]", "result": 69, "unit": "%"},
      {"measurement": "residual activity", "setting": "[23]; [33]", "result": 100, "unit": "%"},
      {"measurement": "residual activity", "setting": "[24]; [33]", "result": 76.7, "unit": "%"},
      {"measurement": "residual activity", "setting": "[25]; [33]", "result": 100, "unit": "%"},
      {"measurement": "residual activity", "setting": "[26]; [33]", "result": 100, "unit": "%"},
      {"measurement": "residual activity", "setting": "[27]; [33]", "result": 48.8, "unit": "%"},
      {"measurement": "residual activity", "setting": "[28]; [33]", "result": 89.1, "unit": "%"},
      {"measurement": "residual activity", "setting": "[29]; [33]", "result": 90.9, "unit": "%"},
      {"measurement": "residual activity", "setting": "[30]; [33]", "result": 100, "unit": "%"},
      {"measurement": "residual activity", "setting": "[31]; [33]", "result": 100, "unit": "%"}
    ]}
  ]
}
